Earlier results, collected in patent publication US10695378B2, “Direct reprogramming of cells to cardiac myocyte fate” (Duke University, priority 2010, dated 2020).
One block for each compound: values may come before it.

What was measured:
JAK1 = settings: small molecule inhibitors of JAK-1
[1] = not given; remark: listed apart in the source
[2] = system: TGFβ-induced epithelial-to-mesenchymal transition
[3] = not given; remark: listed apart in the source

soluble in DMSO: > 20 mg/mL
Compound: O=C(O)C=C(CCc1ccc(Cl)cc1)c1ccccc1 [PS48, 5-(4-Chloro-phenyl)-3-phenyl-pent-2-enoic acid]

Compound: O=C(O)C(Cc1c[nH]c2ccccc12)N1C(=O)c2ccccc2C1=O (stereo not shown) [RG108, 2-(1,3-Dioxo-1,3-dihydro-2H-isoindol-2-yl)-3-(1H-indol-3-yl)propionic acid]
doubling time in culture (human tumor cell line): increases | human tumor cell line proliferation (human tumor cell line): inhibit

IC50 values (in words) (JAK1): nanomolar range
Compound: N#CC[C@H](C1CCCC1)n1cc(-c2ncnc3[nH]ccc23)cn1 [INCB018424]

therapeutic range ([1]; currently established therapeutic range): 50 to 120 µg/mL | Serum or plasma valproic acid concentrations ([1]; during controlled therapy): 20 to 100 mg/L
Compound: CCCC(CCC)C(=O)O [Valproic acid, 2-propylpentanoic acid]

Compound: Cc1cccc(-c2nn(C(=S)Nc3ccccc3)cc2-c2ccnc3ccccc23)n1 [A83-01, 3-(6-Methyl-2-pyridinyl)-N-phenyl-4-(4-quinolinyl)-1H-pyrazole-1-carbothioamide]
TGFβ-induced epithelial-to-mesenchymal transition [2]: inhibits | phosphorylation of Smad2 (Smad2): blocks

IC50 values (in words) (JAK1): nanomolar range
Compound: CC(C)(C)c1nc2c3ccc(F)cc3c3c(=O)[nH]ccc3c2[nH]1 [JAK inhibitor 1, 2-(1,1-Dimethylethyl)-9-fluoro-3,6-dihydro-7H-benz[h]-imidaz[4,5-f]isoquinolin-7-one]
phosphorylation of STATS [3]: blocks
